Data published in patent publication US10174038B2, “Compounds and methods for antiviral treatment” (Gilead Sciences, Inc., priority 2012, dated 2019).

System: RSV strain A2
Assay: RSV antiviral activity, in vitro cytoprotection assay in Hep2 cells
Format: cell-based, Respiratory Syncytial Virus (RSV)
Conditions: 0.5 μM compound; RSV-induced cytopathic effect in Hep2 cells; % inhibition calculated from fitted 4-parameter dose response curve, normalized to 0% and 100%
Protocol: Antiviral activity against RSV was determined using an in vitro cytoprotection assay in Hep2 cells. […] The method used was similar to methods previously described in published literature (Chapman et al., Antimicrob Agents Chemother. 2007, 51(9):3346-53.)
Hep2 cells were obtained from ATCC (Manassas, Va.) and maintained in MEM media supplemented with 10% fetal bovine serum and penicillin/streptomycin. Cells were passaged twice a week and kept at subconfluent stage. Commercial stock of RSV strain A2 (Advanced Biotechnologies, Columbia, Md.) was titered before compound testing to determine the appropriate dilution of the virus stock that generated desirable cytopathic effect in Hep2 cells.
For antiviral tests, Hep2 cells were seeded into 96-well plates 24 hours before the assay at a density of 3,000 cells/well. On a separate 96 well plate, compounds to be tested were serially diluted in cell culture media. Eight concentrations in 3-fold serial dilution increments were prepared for each tested compound and 100 uL/well of each dilution was transferred in duplicate onto plates with seeded Hep2 cells. Subsequently, appropriate dilution of virus stock previously determined by titration was prepared in cell culture media and 100 uL/well was added to test plates containing cells and serially diluted compounds. Each plate included three wells of infected untreated cells and three wells of uninfected cells that served as 0% and 100% virus inhibition control, respectively. Following the infection with RSV, testing plates were incubated for 4 days in a tissue culture incubator. After the incubation, RSV-induced cytopathic effect was determined using a Cell TiterGlo reagent (Promega, Madison, Wis.) followed by a luminescence read-out. The percentage inhibition was calculated for each tested concentration relative to the 0% and 100% inhibition controls and the EC50 value for each compound was determined by non-linear regression as a concentration inhibiting the RSV-induced cytopathic effect by 50%. Ribavirin (purchased from Sigma, St. Louis, Mo.) was used as a positive control for antiviral activity.
Compounds were also tested for antiviral activity against RSV in Hep2 cells using a 384 well format. Compounds were diluted in DMSO using a 10-step serial dilution in 3-fold increments via automation in 4 adjacent replicates each. Eight compounds were tested per dilution plate. 0.4 uL of diluted compounds were then stamped via Biomek into 384-well plates (Nunc 142761 or 164730 w/lid 264616) containing 20 μL of media (Mediatech Inc. MEM supplemented with Glutamine, 10% FBS and Pen/Strep). DMSO and a suitable positive control compound, such as 80 μM GS-329467 or 10 μM 427346 was used for the 100% and 0% cell killing controls, respectively.
Hep2 cells (1.0×10^5 cells/ml) were prepared as above in batch to at least 40 mls excess of the number of sample plates (8 mls cell mix per plate) and infected with vendor supplied (ABI) RSV strain A2 to arrive at an MOI of 1:1000 (virus:cell #) or 1:3000 (vol virus:cell vol). Immediately after addition of virus, the RSV infected Hep2 cell suspension was added to each stamped 384-well plate at 20 μl per well using a uFlow dispenser, giving a final volume of 40 μL/well, each with 2000 infected cells. The plates were then incubated for 5 days at 37° C. and 5% CO2. Following incubation, the plates were equilibrated to room temperature in a biosafety cabinet hood for 1.5 hrs and 40 μL of Cell-Titer Glo viability reagent (Promega) was added to each well via uFlow. Following a 10-20 minute incubation, the plates were read using an EnVision or Victor Luminescence plate reader (Perkin-Elmer). The data was then uploaded and analyzed on the Bioinformatics portal under the RSV Cell Infectivity and 8-plate EC50-Hep2-384 or 8-plate EC50-Hep2-Envision protocols. […]

SMILES | Percent inhibition at 0.5 μM
Cc1cc(C2CC2)nc2cc([C@@H]3CCCCN3C(=O)c3ccc(Cl)c(F)c3NS(C)(=O)=O)nn12 [Compound 31] | 86%

Same assay, conditions: human respiratory syncytial virus, HEp-2, read-out: Percent inhibition at 0.5 μM

SMILES | inhibition at 0.5 µM
CS(=O)(=O)Nc1ccc(Cl)cc1C(=O)N1CCCC[C@H]1c1cc2nc(N3CCC3)cc(NCCN)n2n1 [Compound 20] | 100%

Same assay, conditions: human respiratory syncytial virus, HEp-2; 0.5 μM compound; RSV-induced cytopathic effect in Hep2 cells; % inhibition calculated from fitted 4-parameter dose response curve, normalized to 0% and 100%; read-out: Percent inhibition at 0.5 μM

SMILES | inhibition at 0.5 µM
Cc1cn2nc([C@@H]3CCCCN3C(=O)c3cc(Cl)ccc3CN)cc2nc1N1CC[C@H](N)C1 [Compound 37] | 100%
CC(=O)Nc1ccc(C)cc1C(=O)N1CCCC[C@H]1c1cc2nc(N3CCC[C@H](N)C3)c(C)cn2n1 [Compound 86] | 84%
Cc1cc(C2CC2)nc2cc([C@@H]3CCCCN3C(=O)c3cc(Cl)cc(Cl)c3NS(C)(=O)=O)nn12 [Compound 26] | 97%
CC(=O)Nc1sccc1C(=O)N1CCCC[C@H]1c1cc2nc(N3CC[C@H](N)C3)c(C)cn2n1 [Compound 13] | 98%
Cc1cn2nc([C@@H]3CCCCN3C(=O)c3cc(Cl)ccc3CN=[N+]=[N-])cc2nc1N1CC[C@H](N)C1 [Compound 35] | 100%
CS(=O)(=O)Nc1ccc(Cl)cc1C(=O)N1CCCC[C@H]1c1cc2nc(N3CCC3)cc(N3CCN[C@@H](CO)C3)n2n1 [Compound 19] | 100%
Cc1ccc(NS(C)(=O)=O)c(C(=O)N2CCCC[C@H]2c2cc3nc(C)c(C)c(N4CCC4)n3n2)c1 [Compound 79] | 100%
CN1CCN(c2cc(C3CC3)nc3cc([C@@H]4CCCCN4C(=O)c4cc(Cl)ccc4NS(C)(=O)=O)nn23)CC1 [Compound 59] | 92%
CN(C)c1cc(N2CCOCC2)n2nc([C@@H]3CCCCN3C(=O)c3cc(Cl)ccc3NS(C)(=O)=O)cc2n1 [Compound 92] | 98%
COc1ccc(C)cc1C(=O)N1CCCC[C@H]1c1cc2nc(N3CC[C@H](N)C3)c(C)cn2n1 [Compound 8] | 100%
Cc1ccc(NS(C)(=O)=O)c(C(=O)N2CCCC[C@H]2c2cc3nc(C4CC4)c(C)cn3n2)c1 [Compound 73] | 100%
Cc1ccncc1C(=O)N1CCCC[C@H]1c1cc2nc(N3CC[C@H](N)C3)c(C)cn2n1 [Compound 7] | 100%
Cc1cn2nc([C@@H]3CCCCN3C(=O)c3ccccc3OC(F)(F)F)cc2nc1N1CC[C@H](N)C1 [Compound 9] | 100%
C#CC1CCN(c2nc3cc([C@@H]4CCCCN4C(=O)c4cc(Cl)ccc4NS(C)(=O)=O)nn3cc2C)C1 (stereo partly shown) [Compound 41] | 100%
COc1ccc(Cl)cc1C(=O)N1CCCC[C@H]1c1cc2nc(N3CC[C@H](N)C3)c(C)cn2n1 [Compound 10] | 100%
Cc1cc(N(C)CCO)nc2cc([C@@H]3CCCCN3C(=O)c3cc(Cl)ccc3NS(C)(=O)=O)nn12 [Compound 60] | 87%
Cc1cn2nc([C@@H]3CCCCN3C(=O)C(NS(C)(=O)=O)c3ccccc3Cl)cc2nc1N1C[C@@H](C#N)[C@@H](O)C1 (stereo partly shown) [Compound 22] | 100%
Cc1cc(NS(C)(=O)=O)c(C(=O)N2CCCC[C@H]2c2cn3nc(N4CC[C@H](N)C4)c(C)cc3n2)s1 [Compound 114] | 100%
CS(=O)(=O)Nc1ccc(Cl)cc1C(=O)N1CCCC[C@H]1c1cc2nc(C3CNC3)cc(N3CCOCC3)n2n1 [Compound 56] | 93%
CS(=O)(=O)Nc1ccc(Cl)cc1C(=O)N1CCCC[C@H]1c1cn2nc(N3CC[C@H](N)C3)ccc2n1 [Compound 117] | 100%
Cc1cn2nc([C@@H]3CCCCN3C(=O)c3cc(Cl)ccc3NC(=O)c3ccccc3)cc2nc1N1CC[C@H](N)C1 [Compound 62] | 100%
CS(=O)(=O)Nc1ccc(Cl)cc1C(=O)N1CCCC[C@H]1c1cc2nc(N3CC[C@@H](N)C3)cc(N3CCOCC3)n2n1 [Compound 95] | 99%
Cc1ccc(NS(C)(=O)=O)c(C(=O)N2CCCC[C@H]2c2nc3c(C)cc(C)nc3[nH]2)c1 [Compound 112] | 5%
Cc1cc(NS(C)(=O)=O)c(C(=O)N2CCCC[C@H]2c2cc3nc(N4CC[C@H](N)C4)c(C)cn3n2)s1 [Compound 12] | 100%

SMILES | inhibition at 0.5 µM
Cc1ccc(NS(C)(=O)=O)c(C(=O)N2CCCC[C@H]2c2nc3cc(C)cc(C)n3n2)c1 [Compound 110] | 60%
Cc1ccc(NS(C)(=O)=O)c(C(=O)N2CCCC[C@H]2c2cc3cc(C)cc(C)n3n2)c1 [Compound 105] | 96%
Cc1cccc(C(=O)N2CCCC[C@H]2c2cn3nc(N4CC[C@H](N)C4)ccc3n2)n1 [Compound 119] | 83%
CS(=O)(=O)Nc1ccc(Cl)cc1C(=O)N1CCCC[C@H]1c1cn2nc(N3C[C@@H](C#N)[C@@H](O)C3)ccc2n1 [Compound 118] | 100%
Cc1cn2nc([C@@H]3CCCCN3C(=O)c3cc(Cl)ccc3NS(C)(=O)=O)cc2nc1N1CC(C#N)C1 [Compound 97] | 97%
Cc1ccc(Cl)cc1C(=O)N1CCCC[C@H]1c1cn2nc(N3CC[C@H](N)C3)ccc2n1 [Compound 121] | 100%
Cc1cc(C)n2cc([C@@H]3CCCCN3C(=O)c3cc(Cl)ccc3NS(C)(=O)=O)nc2c1 [Compound 104] | 3%
Cc1cn2nc([C@@H]3CCCCN3C(=O)c3cc(Cl)ccc3NS(=O)(=O)N(C)C)cc2nc1N1CC[C@H](N)C1 [Compound 61] | 100%
Cc1cn2nc([C@@H]3CCCCN3C(=O)[C@](C)(NS(C)(=O)=O)c3ccccc3)cc2nc1N1CC[C@H](N)C1 [Compound 27] | 100%
Cc1ccc(NS(C)(=O)=O)c(C(=O)N2CCCC[C@H]2c2cc3nc(C)c(C)cn3n2)c1 [Compound 81] | 100%
Cc1cccc(NS(C)(=O)=O)c1C(=O)N1CCCC[C@H]1c1cc2nc(C3CC3)cc(C)n2n1 [Compound 45] | 100%
Cc1cc(N2CC[C@H](N)C2)nn2cc([C@@H]3CCCCN3C(=O)c3cc(Cl)ccc3NS(C)(=O)=O)nc12 [Compound 108] | 100%
Cc1ccc(C(=O)N2CCCC[C@H]2c2cc3nc(N4CC[C@H](N)C4)c(C)cn3n2)c(C)c1 [Compound 4] | 100%
O=C(c1ccccc1C(F)(F)F)N1CCCC[C@H]1c1cc2nc(N3CC(O)C3)cc(N3CC(O)C3)n2n1 [Compound 50] | 100%
Cc1cn2nc([C@@H]3CCCCN3C(=O)c3cccc(C)c3O)cc2nc1N1CC[C@H](N)C1 [Compound 16] | 100%
O=C(c1cc(Cl)ccc1NS(=O)(=O)CC(F)(F)F)N1CCCC[C@H]1c1cc2nc(N3CCC3)cc(N3CCNCC3)n2n1 [Compound 55] | 98%
Cc1cn2nc([C@@H]3CCCCN3C(=O)C(NS(C)(=O)=O)c3ccccc3Br)cc2nc1N1CC[C@H](N)C1 (stereo partly shown) [Compound 33] | 100%
CNc1c(C)c(C)nc2cc([C@@H]3CCCCN3C(=O)c3cc(F)cc(Cl)c3NS(C)(=O)=O)nn12 [Compound 24] | 91%
Cc1cc(C2CC2)nc2cc([C@@H]3CCCCN3C(=O)c3cc(Cl)c(F)cc3NS(C)(=O)=O)nn12 [Compound 30] | 91%
Cc1cn2nc([C@@H]3CCCCN3C(=O)[C@@](C)(NS(C)(=O)=O)c3ccccc3)cc2nc1N1CC[C@H](N)C1 [Compound 28] | 100%
Cc1cn2nc([C@@H]3CCCCN3C(=O)c3n[nH]c4ccc(F)cc34)cc2nc1N1CC[C@H](N)C1 [Compound 15] | 92%
Cc1cn2nc([C@@H]3CCCCN3C(=O)c3cc(Cl)ccc3NC(=O)OCC(F)(F)F)cc2nc1N1CC[C@H](N)C1 [Compound 63] | 100%
Cc1cc(C2CC2)nc2cc([C@@H]3CCCCN3C(=O)c3c(NS(C)(=O)=O)cccc3C(F)(F)F)nn12 [Compound 47] | 99%
